Reference: the Biogen ADME set (Fang et al. 2023)
≈ marks a conversion by molar mass, not a printed value.

Conditions: for aqueous solubility: pH 6.8

Row | SMILES | MDR1-MDCK efflux ratio | intrinsic clearance, human liver microsomes | intrinsic clearance, rat liver microsomes | aqueous solubility
1 | Oc1ccc2nc(/C=C/c3csnn3)ccc2c1Cl | 0.069 | 99.4 mL/min/kg | 240 mL/min/kg | –
2 | COc1cc2nc(/C=C/c3cocn3)sc2cc1OC | 0.504 | 11.4 mL/min/kg | 74.5 mL/min/kg | 12.4 µg/mL (≈ 42.9 µM)
3 | CCCn1cc(NC(=O)Nc2ccc(N3CCSCC3)cc2)cn1 | 7.18 | 44.4 mL/min/kg | 808 mL/min/kg | –
4 | OCc1cnnn1-c1cncc(Cl)n1 | 0.648 | ≤ 4.74 mL/min/kg | ≤ 10.7 mL/min/kg | –
5 | CSC1(CNc2cncc(Cl)n2)CCOCC1 | – | 10.2 mL/min/kg | 528 mL/min/kg | –
6 | c1ccc2c(N3CCn4c(nnc4C4CC4)C3)ncnc2c1 | 16 | ≤ 4.74 mL/min/kg | ≤ 10.7 mL/min/kg | 43.4 µg/mL (≈ 148 µM)
7 | Cc1ccc(-c2noc(CCC(=O)N3CCCC3(C)C)n2)cc1F | 0.535 | 228 mL/min/kg | 3380 mL/min/kg | 40.8 µg/mL (≈ 123 µM)
8 | O=c1c2cccn2c2ccccc2n1CCCN1CCC(c2ccc(Cl)cc2)CC1 | 5.19 | 183 mL/min/kg | 1330 mL/min/kg | 19.8 µg/mL (≈ 47 µM)
9 | Cc1sc(C)c(C(=O)NC2(c3ccc(C(=O)O)cc3)CC2)c1Cc1ccc(C(F)(F)F)cc1 | 8.19 | ≤ 4.74 mL/min/kg | 31.2 mL/min/kg | 51.4 µg/mL (≈ 109 µM)
10 | Cn1cncc1CCNC(=O)[C@H]1CC1(C)C | 8.23 | ≤ 4.74 mL/min/kg | ≤ 10.7 mL/min/kg | 28.8 µg/mL (≈ 130 µM)

Other lines, results leading:

Row | MDR1-MDCK efflux ratio | intrinsic clearance, human liver microsomes | intrinsic clearance, rat liver microsomes | aqueous solubility | SMILES
11 | 10.2 | 18.7 mL/min/kg | ≤ 10.7 mL/min/kg | – | COc1cc2nn(CCC(C)(C)O)cc2cc1NC(=O)c1ccn(C(F)F)n1
12 | 1.4 | ≤ 4.74 mL/min/kg | 2290 mL/min/kg | – | COc1cccc(OC)c1-c1ccc(OCCN2CCCC2)cc1
13 | 0.618 | 16 mL/min/kg | 376 mL/min/kg | 4.97 µg/mL (≈ 18.9 µM) | c1ccc(-n2ncc3c(-n4ccnc4)ncnc32)cc1
14 | – | 35.1 mL/min/kg | 382 mL/min/kg | – | Oc1c(C(c2ccc(F)cc2)N2CCCCC2)ccc2cccnc12 (stereo unspecified)
15 | 91.5 | 162 mL/min/kg | 250 mL/min/kg | 53.4 µg/mL (≈ 95.9 µM) | COc1cc(C(C)C)c2c(c1)S(=O)(=O)N(COc1cc(=O)n3cccc(OCCN4CCCCC4)c3n1)C2=O
16 | 2.32 | 6.19 mL/min/kg | 237 mL/min/kg | – | C[C@@H](NC(=O)N1CCC2(CCOCC2)CC1)c1ccc(F)cc1
17 | 0.878 | 11.4 mL/min/kg | 75.2 mL/min/kg | – | COCCN(C)C(=O)c1ccc(-c2cccc(-c3noc(C)n3)c2)cc1
18 | 1.63 | ≤ 4.74 mL/min/kg | ≤ 10.7 mL/min/kg | 45.6 µg/mL (≈ 173 µM) | CN(CCc1ccccn1)C(=O)Nc1nncs1
19 | 0.731 | 341 mL/min/kg | 1420 mL/min/kg | 28 µg/mL (≈ 79 µM) | COCC1(c2nc(-c3ccncc3)nn2Cc2cccc(Cl)c2)CC1
20 | 0.65 | – | – | 0.35 µg/mL (≈ 1.06 µM) | Cc1cccc(CNc2cccc3c2CCN(S(C)(=O)=O)C3)c1
21 | – | 13.4 mL/min/kg | 34.8 mL/min/kg | – | Cc1nc(C)c(C(=O)Nc2ccc3ncccc3c2)o1
22 | 0.248 | 35.9 mL/min/kg | 105 mL/min/kg | 4.17 µg/mL (≈ 13.3 µM) | CCc1nnc(NC(=O)c2ccc3cc(OC)ccc3n2)s1
23 | 1.81 | 70.8 mL/min/kg | 258 mL/min/kg | – | CC(C)Oc1cccc(C(C)NC(=O)c2ccnc(-n3cncn3)c2)c1 (stereo unspecified)
